Source: PubChem BioAssay (NCI)
Where “and” joins values, the source holds several entries; their conditions need not be identical. Equal entries are not always repeated.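 Growth conditions: 96-well plates. Treatment: test compound, 48 hours, 5 concentrations. Analysis: linear interpolation between bracketing concentrations; unreached endpoints set to highest concentration. GI50 = concentration required for 50% inhibition of growth. TGI marks complete inhibition of growth.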

Columns and labels:
Assay in all cases: growth of human tumour cells (NCI), 48 h
SK-MEL-2 melanoma = system: SK-MEL-2 melanoma
MDA-MB-435 = system: MDA-MB-435
SK-MEL-28 melanoma = system: SK-MEL-28 melanoma
UO-31 renal = system: UO-31 renal
HCT-116 colon = system: HCT-116 colon
HS 578T breast = system: HS 578T breast
U251 CNS = system: U251 CNS
UACC-62 melanoma = system: UACC-62 melanoma
UACC-257 melanoma = system: UACC-257 melanoma
HOP-92 NSCLC = system: HOP-92 NSCLC

Row | SMILES | TGI (SK-MEL-2 melanoma) | TGI (MDA-MB-435) | TGI (SK-MEL-28 melanoma) | TGI (UO-31 renal) | TGI (HCT-116 colon) | TGI (HS 578T breast) | TGI (U251 CNS) | TGI (UACC-62 melanoma) | TGI (UACC-257 melanoma) | TGI (HOP-92 NSCLC) | GI50 (MDA-MB-435) | GI50 (SK-MEL-28 melanoma) | GI50 (UO-31 renal) | GI50 (HCT-116 colon) | GI50 (U251 CNS) | GI50 (UACC-62 melanoma) | GI50 (UACC-257 melanoma) | GI50 (HOP-92 NSCLC)
1 | CCOC(=O)[C@@H]1ON2OC(OC3CCCC3(c3ccccc3)c3ccccc3)C(OC(C)=O)[C@H]3OC(=O)[C@@H]1C32 (stereo partly drawn) | > 100 µM | > 100 µM | > 100 µM | > 100 µM | > 100 µM | > 100 µM | > 100 µM | > 100 µM | > 100 µM | > 100 µM | – | – | – | – | – | – | – | –
2 | Oc1cc(Br)cc2cc(Cl)cnc12 | 95.9 µM | > 67.7 µM | > 100 µM | 17.4 µM | > 42 µM | 12.1 µM | > 82.8 µM | 6.1 µM | > 100 µM | > 100 µM | – | – | – | – | – | – | – | –
3 | COc1cc(Br)c(CC2C3=C(CCN2C(=O)C2CCC2)CC(=O)CC3)cc1O (stereo not drawn) | > 100 µM | 35.7 µM | > 100 µM | > 100 µM | > 100 µM | 85.5 µM | > 100 µM | 36.3 µM | > 100 µM | 53.6 µM | – | – | – | – | – | – | – | –
4 | O=C1C(=Cc2ccc(Cl)c(Cl)c2)C([O-])=C([P+](c2ccccc2)(c2ccccc2)c2ccccc2)C([O-])=C1[P+](c1ccccc1)(c1ccccc1)c1ccccc1 | 6.91 µM | 5.59 µM | 6.07 µM | 8.89 µM | 3.73 µM | 12.7 µM | 6.29 µM | 5.29 µM | 5.8 µM | 4.86 µM | – | – | – | – | – | – | – | –
5 | CNc1ncnc2c1cnn2Cc1cn(COCC(O)CO)nn1 (stereo not drawn) | > 100 µM | > 100 µM | > 100 µM | > 100 µM | > 100 µM | 20.3 µM | > 100 µM | > 100 µM | > 100 µM | > 100 µM | – | – | – | – | – | – | – | –
6 | Cc1ccc([N+](=O)[O-])c2c(NCC(O)CO)ccnc12 (stereo not drawn) | 53.9 µM | > 100 µM | > 100 µM | > 100 µM | > 100 µM | > 100 µM | > 100 µM | > 100 µM | > 100 µM | > 100 µM | – | – | – | – | – | – | – | –
7 | CN(C)CCCNCc1cccc2ccccc12 | > 100 µM | > 100 µM | > 100 µM | > 100 µM | > 100 µM | > 100 µM | > 100 µM | > 100 µM | > 100 µM | > 100 µM | – | – | – | – | – | – | – | –
8 | O=c1c2ccccc2nc(N/N=C/c2ccccc2O)n1-c1ccccc1 | > 100 µM | > 100 µM | > 100 µM | > 100 µM | 8.8 µM | 39.5 µM | > 100 µM | 7.1 µM | > 100 µM | 81.3 µM | – | – | – | – | – | – | – | –
9 | O=c1ccc2ccc(O)cc2o1 | > 100 µM | > 100 µM | > 100 µM | > 100 µM | > 100 µM | > 100 µM | > 100 µM | > 100 µM | > 100 µM | > 100 µM | – | – | – | – | – | – | – | –
10 | C=CC(C)(C)C(=C)C(=O)Nc1ccccc1I | > 100 µM | > 100 µM | > 100 µM | > 100 µM | > 100 µM | > 100 µM | > 100 µM | > 100 µM | > 100 µM | > 100 µM | – | – | – | – | – | – | – | –
11 | CC1=C(C)C(=O)C(C2=CC(=O)C=CC2=O)=C(C2=CC(=O)C=CC2=O)C1=O | > 100 µM | > 83.7 µM | > 100 µM | > 100 µM | > 79.2 µM | > 100 µM | > 77.5 µM | > 100 µM | > 100 µM | > 78.9 µM | – | – | – | – | – | – | – | –
12 | CC(C)(C)CC(C)(C)c1ccc(O)c(C[N+](C)(C)[O-])c1 | > 100 µM | > 100 µM | > 100 µM | > 100 µM | > 100 µM | > 100 µM | > 100 µM | > 100 µM | > 100 µM | > 100 µM | – | – | – | – | – | – | – | –
13 | OC1C[C@H](c2ccccc2)C2(C(O)c3ccccc3C2O)[C@@H](c2ccccc2)C1 (stereo partly drawn) | > 100 µM | > 100 µM | > 100 µM | > 100 µM | > 100 µM | > 100 µM | > 100 µM | > 100 µM | > 100 µM | > 100 µM | – | – | – | – | – | – | – | –
14 | CCOC(=O)C(NC(=O)OC(C)(C)C)C(=O)OCC | > 100 µM | > 100 µM | > 100 µM | > 100 µM | > 100 µM | > 100 µM | > 100 µM | > 100 µM | > 100 µM | > 100 µM | – | – | – | – | – | – | – | –
15 | Cc1cc(S(=O)(=O)/N=C(/NN)NNc2cccc(C(F)(F)F)n2)c(S)cc1Cl | 63.2 µM | 40.6 µM | 33.5 µM | 37.2 µM | 50.6 µM | 54.4 µM | 33.6 µM | 37 µM | 89.9 µM | 23.8 µM | – | – | – | – | – | – | – | –
16 | CN(C)/N=N/c1nc[nH]c1C(N)=O | 74.1 µM and 396 µM | > 1000 µM | > 1000 µM | 96.9 µM and > 793 µM | > 1000 µM | > 1000 µM | > 1000 µM | > 98.6 µM and 363 µM | > 1000 µM | 87.1 µM and 796 µM | 31.4 µM | 595 µM | 24.5 µM | 45.4 µM | 71.5 µM | 23.8 µM | 225 µM | 74 µM
17 | CCC(NC1=NCCO1)c1cccs1 (stereo not drawn) | 29.4 µM | 27.6 µM | 29 µM | 32.7 µM | 27.1 µM | 26.4 µM | 26.3 µM | 30.8 µM | 35.8 µM | 32.6 µM | – | – | – | – | – | – | – | –
18 | Cc1ccc(NC(=O)CSC(N)=O)cc1C | > 100 µM | > 100 µM | > 100 µM | > 100 µM | > 100 µM | > 100 µM | > 100 µM | > 100 µM | > 100 µM | > 100 µM | – | – | – | – | – | – | – | –
19 | CN(Cc1cc(Cl)c(Cl)cc1NC(=O)CN)[C@H]1CCCC[C@@H]1N1CCCC1 | 31.9 µM | 32.9 µM | 41.5 µM | > 100 µM | 45.2 µM | 58.5 µM | 18.8 µM | 31.5 µM | 31.7 µM | > 100 µM | – | – | – | – | – | – | – | –
20 | Cc1c(C(=O)O)n2cnnc2c2ccccc12 | > 100 µM | > 100 µM | > 100 µM | > 100 µM | > 100 µM | > 100 µM | > 100 µM | > 100 µM | > 100 µM | > 100 µM | – | – | – | – | – | – | – | –
21 | COc1ccc(Nc2nc(N)c(C(=O)c3cccs3)s2)cc1 | > 51.4 µM | 22.8 µM | > 95.7 µM | > 41.1 µM | > 36.5 µM | > 61.9 µM | > 100 µM | > 54.2 µM | 31.3 µM | 89.3 µM | – | – | – | – | – | – | – | –
22 | O=[N+]([O-])C(Cl)=C/C(=C(\Cl)SCc1ccccc1)[N+](=O)[O-] | 76.5 µM | 36.3 µM | 59.7 µM | 40.2 µM | 44.1 µM | > 100 µM | 34.9 µM | > 100 µM | 79.7 µM | 36.1 µM | – | – | – | – | – | – | – | –
23 | CC1=NN(c2nc(N)nc(CF)n2)C(C)(C)C1 | > 100 µM | > 100 µM | > 100 µM | > 100 µM | > 100 µM | > 100 µM | > 100 µM | > 100 µM | > 100 µM | > 100 µM | – | – | – | – | – | – | – | –
24 | CC(C)(C)[Si](C)(C)OCC1OC(n2cnc3c(=O)[nH]c(N)nc32)C(O[Si](C)(C)C(C)(C)C)C1O[Si](C)(C)C(C)(C)C (stereo not drawn) | 1.01 µM | 2.88 µM | 3.89 µM | 15.3 µM | 2.61 µM | 7.65 µM | 3.71 µM | 4.3 µM | 9.4 µM | 7.37 µM | – | – | – | – | – | – | – | –
25 | Cc1sc2nc3n(c(=O)c2c1C)N=CN(c1ccc(F)cc1)C3 | > 100 µM | > 100 µM | > 100 µM | > 100 µM | 49 µM | 79.2 µM | > 100 µM | > 100 µM | > 100 µM | 83.9 µM | – | – | – | – | – | – | – | –
26 | O=C(CSc1nc2ccccc2c(=O)n1-c1ccccc1)N=Nc1c(O)[nH]c2ccc(F)cc12 | 3.59 µM | > 100 µM | 4.54 µM | 3.73 µM | 4.46 µM | > 100 µM | > 100 µM | 4.82 µM | 6 µM | 4.17 µM | – | – | – | – | – | – | – | –
27 | C=C1C(=O)OC2CC3(C)OC3CC/C(C)=C/C(OC(C)=O)C12 (stereo not drawn) | 31.5 µM | 25.2 µM | 16.8 µM | 26.5 µM | 14.6 µM | 42.9 µM | 33.5 µM | 22.9 µM | 22.6 µM | 4.69 µM | – | – | – | – | – | – | – | –
28 | Fc1cc(-c2cc(-c3ccc4c(c3)OCO4)n[nH]2)c(Cl)cc1Cl | 36.5 µM | 30.9 µM | 16.9 µM | 6.46 µM | 4.17 µM | > 45.4 µM | 3.63 µM | 3.8 µM | 27.9 µM | 6.21 µM | – | – | – | – | – | – | – | –
29 | O=C1CC2CCC(C1)S2=O (stereo not drawn) | > 100 µM | > 100 µM | > 100 µM | > 100 µM | > 100 µM | > 100 µM | > 100 µM | > 100 µM | > 100 µM | > 100 µM | – | – | – | – | – | – | – | –
